Data from patent US20240041042A1, “1-(PYRIDYL)-5-AZINYLPYRAZOLE DERIVATIVES, AND THEIR USE FOR CONTROL OF UNDESIRED PLANT GROWTH” (Bayer Aktiengesellschaft, priority 2020, published 2024).
Where two headings read alike, the source gives them in different places.

Tests used:
Format in all cases: in vivo
[1] = test system: Polygonum convolvulus (POLCO); assay: Pre-emergence herbicidal action against POLCO
Method in brief: (§1)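 Herbicide applied to soil before seedling emergence, at 600 l/ha spray volume with 0.5% additive and rates up to 320 g/ha. Evaluation: visual percentage effect, about 3 weeks later, greenhouse-grown pots compared with untreated ones.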

[2] = test system: Verconica persica (VERPE); assay: Pre-emergence herbicidal action against VERPE
Method in brief: as §1

[3] = test system: Setaria viridis (SETVI); assay: Pre-emergence herbicidal action against SETVI; details: dosage 320 g/ha
Method in brief: as §1

[4] = test system: Alopecurus myosuroides (ALOMY); assay: Pre-emergence herbicidal action against ALOMY; details: scored visually after about 3 weeks, 100% = plants have died
Method in brief: as §1

[5] = test system: Amaranthus retroflexus (AMARE); assay: Pre-emergence herbicidal action against AMARE; details: visual scoring after about 3 weeks vs untreated controls
Method in brief: as §1

[6] = test system: Alopecurus myosuroides (ALOMY); assay: Post-emergence herbicidal action against ALOMY; details: visual rating about 3 weeks after treatment vs untreated controls (100% = plants have died, 0% = like control plants)
Method in brief: (§2)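 Post-emergence greenhouse spray, one-leaf stage, 600 l/ha water plus 0.5% additive; WP or EC formulations; application rates 320 g/ha or lower. Visual % damage vs untreated controls at ~3 weeks.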

[7] = test system: Amaranthus retroflexus (AMARE); assay: Post-emergence herbicidal action against AMARE
Method in brief: as §2

[8] = test system: Matricaria inodora (MATIN); assay: Pre-emergence herbicidal action against MATIN; details: dosage 320 g/ha
Method in brief: as §1

[9] = test system: Oryza sativa (ORYSA); details: pre-emergence, 80 g/ha, crop plant compatibility, in comparison to untreated controls
Method in brief: (§3)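 Scoring: visual, % of untreated control, about 3 weeks after a pre-emergence application to the soil surface. Application used WP or EC formulations diluted in water with 0.5% additive at 600 l/ha; dosage levels are marked by suffixes a, b and c.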

[10] = test system: Zea mays (ZEAMX); details: pre-emergence, crop plant compatibility, in comparison to untreated controls
Method in brief: as §3

[11] = test system: Oryza sativa (ORYSA); details: crop plant compatibility
Method in brief: (§4)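 Effects were read visually as % versus untreated controls (0% = no effect, 100% = death) about 3 weeks post-treatment. Application was a post-emergence spray at the one-leaf stage of WP/EC formulations with 0.5% additive at 600 l/ha. Different dosages are denoted a, b and c.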

[12] = test system: Zea mays (ZEAMX); details: for Post-emergence action against ZEAMX in %: crop plant compatibility, 80 g/ha, effect vs untreated controls
Method in brief: as §4

[13] = test system: Triticum aestivum (TRZAS); details: crop plant compatibility, effect vs untreated controls
Method in brief: as §4

[14] = test system: Avena fatua (AVEFA); assay: Pre-emergence herbicidal action against AVEFA; details: 320 g/ha, visual scoring after about 3 weeks vs untreated controls
Method in brief: as §1

[15] = test system: Pharbitis purpurea (PHBPU); assay: Post-emergence herbicidal action against PHBPU
Method in brief: as §2

[16] = test system: Viola tricolor (VIOTR); assay: Pre-emergence herbicidal action against VIOTR
Method in brief: as §1

[17] = test system: Polygonum convolvulus (POLCO); assay: Post-emergence herbicidal action against POLCO
Method in brief: as §2

[18] = test system: Verconica persica (VERPE); assay: Post-emergence herbicidal action against VERPE
Method in brief: as §2

[19] = test system: Lolium rigidum (LOLRI); assay: Pre-emergence herbicidal action against LOLRI; details: dosage 320 g/ha
Method in brief: as §1

[20] = test system: Viola tricolor (VIOTR); assay: Post-emergence herbicidal action against VIOTR
Method in brief: as §2

[21] = test system: Abutilon theophrasti (ABUTH); assay: Post-emergence herbicidal action against ABUTH; details: visual rating about 3 weeks after treatment vs untreated controls (100% = plants have died, 0% = like control plants)
Method in brief: as §2

[22] = test system: Setaria viridis (SETVI); assay: Post-emergence herbicidal action against SETVI
Method in brief: as §2

[23] = test system: Echinochloa crus-galli (ECHCG); assay: Pre-emergence herbicidal action against ECHCG; details: dosage 320 g/ha
Method in brief: as §1

[24] = test system: Lolium rigidum (LOLRI); assay: Post-emergence herbicidal action against LOLRI; details: dosage 320 g/ha
Method in brief: as §2

[25] = test system: Matricaria inodora (MATIN); assay: Post-emergence herbicidal action against MATIN; details: dosage 320 g/ha
Method in brief: as §2

[26] = test system: Echinochloa crus-galli (ECHCG); assay: Post-emergence herbicidal action against ECHCG
Method in brief: as §2

[27] = test system: Avena fatua (AVEFA); assay: Post-emergence herbicidal action against AVEFA; details: visual rating about 3 weeks after treatment
Method in brief: as §2

[28] = test system: Pharbitis purpurea (PHBPU); assay: Pre-emergence herbicidal action against PHBPU; details: dosage 320 g/ha
Method in brief: as §1

[29] = 80 g/ha, visual rating about 3 weeks after treatment vs untreated controls (100% = plants have died, 0% = like control plants)
[30] = 80 g/ha, effect in comparison to untreated controls
[31] = 320 g/ha, visual rating about 3 weeks after treatment

Row | Pre-emergence action against ORYSA in % [9] | Pre-emergence action against ZEAMX in % ([10]; 80 g/ha) | Post-emergence action against ORYSA in % [11, 30] | SMILES | Pre-emergence action against POLCO in % ([1]; dosage 320 g/ha) | Pre-emergence action against VERPE in % ([2]; dosage 320 g/ha) | Pre-emergence action against SETVI in % [3] | Pre-emergence action against ALOMY ([4]; 320 g/ha) | Pre-emergence action against AMARE in % ([5]; 320 g/ha) | Post-emergence action against AMARE in % [7, 29] | Pre-emergence action against MATIN in % [8] | Pre-emergence action against AVEFA in % [14] | Post-emergence action against PHBPU in % ([15]; dosage 80 g/ha) | Pre-emergence action against VIOTR in % ([16]; 320 g/ha, Viola tricolor) | Pre-emergence action against LOLRI in % [19] | Post-emergence action against SETVI in % ([22]; dosage 320 g/ha) | Pre-emergence action against ECHCG in % [23] | Post-emergence action against ALOMY in % ([6]; 320 g/ha) | Post-emergence action against ECHCG in % ([26]; dosage 80 g/ha) | Post-emergence action against ECHCG in % ([26]; dosage 320 g/ha) | Post-emergence action against PHBPU in % ([15]; dosage 320 g/ha) | other results
1 | 0% | 0% | 0% | O=C(O)COc1nn(-c2ccccn2)c(-c2ccc(F)nc2)c1C(F)(F)F [Example I-99] | 90% | 90% | 90% | 100% | 90% | 80% | 90% | 90% | 80% | 90% | 100% |  |  |  |  |  |  | Pre-emergence action against ALOMY ([4]; 80 g/ha): 80%; Post-emergence action against ALOMY in % ([6]; 80 g/ha): 90%; Post-emergence action against ORYSA in % ([11]; 20 g/ha, effect vs untreated controls): 0%; Post-emergence action against ZEAMX in % (crop plant compatibility) ([12]; 20 g/ha, ZEAMX, effect in comparison to untreated controls): 0%; Post-emergence action against TRZAS in % ([13]; 20 g/ha): 20%; Post-emergence action against POLCO in % ([17]; dosage 80 g/ha): 90%; Post-emergence action against VERPE in % ([18]; dosage 80 g/ha): 80%
2 | 0% | 10% | 0% | COC(=O)COc1nn(-c2ncccc2Cl)c(-c2ccc(F)nc2)c1Br [Example I-28] | 90% | 100% | 100% | 100% | 100% | 90% | 90% | 100% | 80% | 100% | 100% | 90% | 100% | 100% | 80% | 90% | 80% | Post-emergence action against VIOTR in % ([20]; 80 g/ha): 80%; Post-emergence action against VIOTR in % ([20]; 320 g/ha): 80%; Post-emergence action against ABUTH in % ([21]; 80 g/ha): 80%; Post-emergence action against ABUTH in % ([21]; 320 g/ha): 90%; Pre-emergence action against POLCO in % ([1]; dosage 80 g/ha): 80%; Post-emergence action against SETVI in % ([22]; dosage 80 g/ha): 80%; Pre-emergence action against AMARE in % ([5]; 80 g/ha): 90%; Post-emergence action against ALOMY in % ([6]; 80 g/ha): 100%; Post-emergence action against AMARE in % [7, 31]: 90%; Post-emergence action against LOLRI in % [24]: 90%; Post-emergence action against MATIN in % [25]: 80%; Post-emergence action against ZEAMX in % [12]: 0%; Pre-emergence action against VIOTR in % ([16]; dosage 80 g/ha): 100%; Post-emergence action against POLCO in % ([17]; dosage 320 g/ha): 80%; Post-emergence action against AVEFA in % ([27]; 80 g/ha): 100%; Post-emergence action against AVEFA in % ([27]; 320 g/ha): 100%; Post-emergence action against VERPE in % ([18]; 320 g/ha, VERPE): 80%
3 | 20% | 10% | 10% | CCOC(=O)COc1nn(-c2ncccc2C(F)(F)F)c(-c2cncc(F)c2)c1I [Example I-225] | 90% | 90% | 80% | 90% | 100% |  | 80% | 90% | 80% | 100% |  | 80% | 80% | 90% | 80% | 90% | 80% | Post-emergence action against VIOTR in % ([20]; 80 g/ha): 80%; Post-emergence action against VIOTR in % ([20]; 320 g/ha): 80%; Post-emergence action against ABUTH in % ([21]; 320 g/ha): 80%; Pre-emergence action against VERPE in % ([2]; dosage 80 g/ha): 80%; Pre-emergence action against ALOMY ([4]; 80 g/ha): 80%; Post-emergence action against ZEAMX in % [12]: 20%; Post-emergence action against TRZAS in % ([13]; 80 g/ha): 20%; Pre-emergence action against VIOTR in % ([16]; dosage 80 g/ha): 90%; Post-emergence action against AVEFA in % ([27]; 320 g/ha): 80%; Post-emergence action against VERPE in % ([18]; 320 g/ha, VERPE): 90%; Post-emergence action against VERPE in % ([18]; dosage 80 g/ha): 80%
4 | 0% | 0% | 0% | CCOC(=O)CSc1nn(-c2ccccn2)c(-c2cncc(F)c2)c1C1CC1 [Example I-156] |  |  | 90% |  | 100% | 80% | 80% |  |  | 90% | 80% | 80% | 90% | 80% | 80% | 80% | 90% | Post-emergence action against AMARE in % [7, 31]: 90%; Pre-emergence action against PHBPU in % [28]: 80%; Post-emergence action against MATIN in % [25]: 80%; Pre-emergence action against ZEAMX in % ([10]; 320 g/ha): 20%; Pre-emergence action against VIOTR in % ([16]; dosage 80 g/ha): 80%; Post-emergence action against POLCO in % ([17]; dosage 320 g/ha): 80%; Post-emergence action against AVEFA in % ([27]; 320 g/ha): 90%; Post-emergence action against VERPE in % ([18]; 320 g/ha, VERPE): 80%
